Where two headings read alike, the source gives them in different places.
Tests used:
[1] = molecular target: Mcl-1 protein (UniProtKB primary accession number: Q07820) (Homo sapiens, UniProt Q07820); experiment: Inhibition of Mcl-1 by fluorescence polarisation, Method 1; assay type: binding; conditions: fluorescence polarisation test; Method 2 values are underlined in the patent (underlining not visible here); read-out: IC50 (M) Mcl-1 FP
How it was run: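 Buffer of 10 mM HEPES pH 7.4 with 150 mM NaCl and 0.05% Tween 20 held 5 nM Mcl-1 and 1 nM fluorescein-tagged ligand (final). Compounds were tested as 11-point serial dilutions at 5% final DMSO, and binding was read by FP.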

[2] = test system: H929 multiple myeloma tumour line; experiment: In vitro cytotoxicity, Microculture Tetrazolium Assay; assay type: cell-based; conditions: H929 cells, 48 hours exposure, MTT, read-out: IC50 (μM) MTT H929
Description: The cytotoxicity studies were carried out on the H929 multiple myeloma tumour line.
The cells are distributed onto microplates and exposed to the test compounds for 48 hours.

Chain of Mcl-1 protein (Q07820 whole entry): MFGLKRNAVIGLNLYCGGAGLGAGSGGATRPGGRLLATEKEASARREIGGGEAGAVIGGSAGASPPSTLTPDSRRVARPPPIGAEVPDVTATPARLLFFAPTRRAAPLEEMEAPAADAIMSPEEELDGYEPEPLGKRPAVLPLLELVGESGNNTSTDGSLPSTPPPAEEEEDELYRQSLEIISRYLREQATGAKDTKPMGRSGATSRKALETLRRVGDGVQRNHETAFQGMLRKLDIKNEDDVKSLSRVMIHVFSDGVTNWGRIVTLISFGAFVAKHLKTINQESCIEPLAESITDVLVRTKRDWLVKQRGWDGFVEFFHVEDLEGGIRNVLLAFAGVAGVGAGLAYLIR

| SMILES | IC50 [1] | IC50 ([2]; Homo sapiens, NCI-H929, 48 h) | IC50 [2] |
| --- | --- | --- | --- |
| Cc1c(-c2c(-c3ccco3)sc3ncnc(OC(Cc4ccccc4OCc4cccnn4)C(=O)O)c23)ccc(OCCN2CCN(C)CC2)c1Cl [Example 243, (2R)-2-{[(5Sa)-5-{3-chloro-2-methyl-4-[2-(4-methylpiperazin-1-yl)ethoxy]phenyl}-6-(furan-2-yl)thieno[2,3-d]pyrimidin-4-yl]oxy}-3-[2-(pyridazin-3-ylmethoxy)phenyl]propanoic acid] | 5.6e-09 M | 0.211 µM |  |
| Cc1c(-c2c(-c3ccco3)sc3ncnc(O[C@H](Cc4ccccc4OCc4ccco4)C(=O)O)c23)ccc(OCCN2CCN(C)CC2)c1Cl [Example 244, (2R)-2-{[(5Sa)-5-{3-chloro-2-methyl-4-[2-(4-methylpiperazin-1-yl)ethoxy]phenyl}-6-(furan-2-yl)thieno[2,3-d]pyrimidin-4-yl]oxy}-3-[2-(furan-2-ylmethoxy)phenyl]propanoic acid] | 8.6e-09 M |  | 0.205 µM |
| Cc1c(-c2c(-c3ccco3)sc3ncnc(OC(Cc4ccccc4OCc4cccs4)C(=O)O)c23)ccc(OCCN2CCN(C)CC2)c1Cl [Example 245, (2R)-2-{[(5Sa)-5-{3-chloro-2-methyl-4-[2-(4-methylpiperazin-1-yl)ethoxy]phenyl}-6-(furan-2-yl)thieno[2,3-d]pyrimidin-4-yl]oxy}-3-[2-(thiophen-2-ylmethoxy)phenyl]propanoic acid] | 5.8e-09 M | 0.099 µM |  |
| Cc1c(-c2c(-c3ccco3)sc3ncnc(OC(Cc4ccccc4OCc4ccn(C)n4)C(=O)O)c23)ccc(OCCN2CCN(C)CC2)c1Cl [Example 246, (2R)-2-{[(5Sa)-5-{3-chloro-2-methyl-4-[2-(4-methylpiperazin-1-yl)ethoxy]phenyl}-6-(furan-2-yl)thieno[2,3-d]pyrimidin-4-yl]oxy}-3-{2-[(1-methyl-1H-pyrazol-3-yl)methoxy]phenyl}propanoic acid] | 9.1e-09 M | 0.324 µM |  |
| Cc1nccc(COc2ccccc2CC(Oc2ncnc3sc(-c4ccco4)c(-c4ccc(OCCN5CCN(C)CC5)c(Cl)c4C)c23)C(=O)O)n1 [Example 247, (2R)-2-{[(5Sa)-5-{3-chloro-2-methyl-4-[2-(4-methylpiperazin-1-yl)ethoxy]phenyl}-6-(furan-2-yl)thieno[2,3-d]pyrimidin-4-yl]oxy}-3-{2-[(2-methylpyrimidin-4-yl)methoxy]phenyl}propanoic acid] | 8e-09 M | 0.022 µM |  |
| Cc1c(-c2c(-c3ccco3)sc3ncnc(OC(Cc4ccccc4OCc4ccnc(C(F)(F)F)n4)C(=O)O)c23)ccc(OCCN2CCN(C)CC2)c1Cl [Example 248, (2R)-2-{[(5Sa)-5-{3-chloro-2-methyl-4-[2-(4-methylpiperazin-1-yl)ethoxy]phenyl}-6-(furan-2-yl)thieno[2,3-d]pyrimidin-4-yl]oxy}-3-(2-{[2-(trifluoromethyl)pyrimidin-4-yl]methoxy}phenyl)propanoic acid] | 6.9e-09 M | 0.015 µM |  |
| Cc1c(-c2c(-c3ccco3)sc3ncnc(OC(Cc4ccccc4OCc4ccnc(Cl)n4)C(=O)O)c23)ccc(OCCN2CCN(C)CC2)c1Cl [Example 249, (2R)-2-{[(5Sa)-5-{3-chloro-2-methyl-4-[2-(4-methylpiperazin-1-yl)ethoxy]phenyl}-6-(furan-2-yl)thieno[2,3-d]pyrimidin-4-yl]oxy}-3-{2-[(2-chloropyrimidin-4-yl)methoxy]phenyl}propanoic acid] | 4e-09 M | 0.023 µM |  |
| Cc1c(-c2c(-c3ccco3)sc3ncnc(O[C@H](Cc4ccccc4OCc4ccnc(N)n4)C(=O)O)c23)ccc(OCCN2CCN(C)CC2)c1Cl [Example 250, (2R)-3-{2-[(2-aminopyrimidin-4-yl)methoxy]phenyl}-2-{[(5Sa)-5-{3-chloro-2-methyl-4-[2-(4-methylpiperazin-1-yl)ethoxy]phenyl}-6-(furan-2-yl)thieno[2,3-d]pyrimidin-4-yl]oxy}propanoic acid] | 3.6e-09 M |  | 0.499 µM |
| Cc1c(-c2c(-c3ccco3)sc3ncnc(OC(Cc4ccccc4OCc4ccnc(N(C)C)n4)C(=O)O)c23)ccc(OCCN2CCN(C)CC2)c1Cl [Example 251, (2R)-2-{[(5Sa)-5-{3-chloro-2-methyl-4-[2-(4-methylpiperazin-1-yl)ethoxy]phenyl}-6-(furan-2-yl)thieno[2,3-d]pyrimidin-4-yl]oxy}-3-(2-{[2-(dimethylamino)pyrimidin-4-yl]methoxy}phenyl)propanoic acid] | 6.3e-09 M | 0.035 µM |  |
| Cc1c(-c2c(-c3ccco3)sc3ncnc(OC(Cc4ccccc4OCc4ccnc(N5CCOCC5)n4)C(=O)O)c23)ccc(OCCN2CCN(C)CC2)c1Cl [Example 252, (2R)-2-{[(5Sa)-5-{3-chloro-2-methyl-4-[2-(4-methylpiperazin-1-yl)ethoxy]phenyl}-6-(furan-2-yl)thieno[2,3-d]pyrimidin-4-yl]oxy}-3-(2-{[2-(morpholin-4-yl)pyrimidin-4-yl]methoxy}phenyl)propanoic acid] | 4.2e-09 M | 0.009 µM |  |
| CNc1nccc(COc2ccccc2CC(Oc2ncnc3sc(-c4ccco4)c(-c4ccc(OCCN5CCN(C)CC5)c(Cl)c4C)c23)C(=O)O)n1 [Example 253, (2R)-2-{[(5Sa)-5-{3-chloro-2-methyl-4-[2-(4-methylpiperazin-1-yl)ethoxy]phenyl}-6-(furan-2-yl)thieno[2,3-d]pyrimidin-4-yl]oxy}-3-(2-{[2-(methylamino)pyrimidin-4-yl]methoxy}phenyl)propanoic acid] | 3.1e-09 M | 0.041 µM |  |
| Cc1c(-c2c(-c3ccco3)sc3ncnc(OC(Cc4ccccc4OCc4ccnc(NCc5ccccc5)n4)C(=O)O)c23)ccc(OCCN2CCN(C)CC2)c1Cl [Example 254, (2R)-3-(2-{[2-(benzylamino)pyrimidin-4-yl]methoxy}phenyl)-2-{[(5Sa)-5-{3-chloro-2-methyl-4-[2-(4-methylpiperazin-1-yl)ethoxy]phenyl}-6-(furan-2-yl)thieno[2,3-d]pyrimidin-4-yl]oxy}propanoic acid] | 3.3e-09 M | 0.044 µM |  |
| COc1nccc(COc2ccccc2CC(Oc2ncnc3sc(-c4ccco4)c(-c4ccc(OCCN5CCN(C)CC5)c(Cl)c4C)c23)C(=O)O)n1 [Example 255, (2R)-2-{[(5Sa)-5-{3-chloro-2-methyl-4-[2-(4-methylpiperazin-1-yl)ethoxy]phenyl}-6-(furan-2-yl)thieno[2,3-d]pyrimidin-4-yl]oxy}-3-{2-[(2-methoxypyrimidin-4-yl)methoxy]phenyl}propanoic acid] | 7.5e-09 M | 0.018 µM |  |
| Cc1c(-c2c(-c3ccco3)sc3ncnc(OC(Cc4ccccc4OCc4ccnc(OCc5ccccc5)n4)C(=O)O)c23)ccc(OCCN2CCN(C)CC2)c1Cl [Example 257, (2R)-3-(2-{[2-(benzyloxy)pyrimidin-4-yl]methoxy}phenyl)-2-{[(5Sa)-5-{3-chloro-2-methyl-4-[2-(4-methylpiperazin-1-yl)ethoxy]phenyl}-6-(furan-2-yl)thieno[2,3-d]pyrimidin-4-yl]oxy}propanoic acid] | 5e-09 M | 0.019 µM |  |
| Cc1c(-c2c(-c3ccco3)sc3ncnc(OC(Cc4ccccc4OCc4ccncc4)C(=O)O)c23)ccc(OCCN2CCN(C)CC2)c1Cl [Example 258, (2R)-2-{[(5Sa)-5-{3-chloro-2-methyl-4-[2-(4-methylpiperazin-1-yl)ethoxy]phenyl}-6-(furan-2-yl)thieno[2,3-d]pyrimidin-4-yl]oxy}-3-[2-(pyridin-4-ylmethoxy)phenyl]propanoic acid] | 6.6e-09 M | 0.069 µM |  |
| Cc1c(-c2c(-c3ccco3)sc3ncnc(OC(Cc4ccccc4OCc4ccncn4)C(=O)O)c23)ccc(OCCN2CCN(C)CC2)c1Cl [Example 259, (2R)-2-{[(5Sa)-5-{3-chloro-2-methyl-4-[2-(4-methylpiperazin-1-yl)ethoxy]phenyl}-6-(furan-2-yl)thieno[2,3-d]pyrimidin-4-yl]oxy}-3-[2-(pyrimidin-4-ylmethoxy)phenyl]propanoic acid] | 5.2e-09 M | 0.07 µM |  |
| Cc1c(-c2c(-c3ccco3)sc3ncnc(OC(Cc4ccccc4OCc4ccnn4C)C(=O)O)c23)ccc(OCCN2CCN(C)CC2)c1Cl [Example 260, (2R)-2-{[(5Sa)-5-{3-chloro-2-methyl-4-[2-(4-methylpiperazin-1-yl)ethoxy]phenyl}-6-(furan-2-yl)thieno[2,3-d]pyrimidin-4-yl]oxy}-3-{2-[(1-methyl-1H-pyrazol-5-yl)methoxy]phenyl}propanoic acid] | 6.7e-09 M | 0.033 µM |  |
| Cc1c(-c2c(-c3ccco3)sc3ncnc(OC(Cc4ccccc4OCc4ccnn4C(C)C)C(=O)O)c23)ccc(OCCN2CCN(C)CC2)c1Cl [Example 261, (2R)-2-{[(5Sa)-5-{3-chloro-2-methyl-4-[2-(4-methylpiperazin-1-yl)ethoxy]phenyl}-6-(furan-2-yl)thieno[2,3-d]pyrimidin-4-yl]oxy}-3-(2-{[1-(propan-2-yl)-1H-pyrazol-5-yl]methoxy}phenyl)propanoic acid] | 1.7e-09 M | 0.018 µM |  |
| Cc1c(-c2c(-c3ccco3)sc3ncnc(OC(Cc4ccccc4OCc4ccnn4C4CCCC4)C(=O)O)c23)ccc(OCCN2CCN(C)CC2)c1Cl [Example 262, (2R)-2-{[(5Sa)-5-{3-chloro-2-methyl-4-[2-(4-methylpiperazin-1-yl)ethoxy]phenyl}-6-(furan-2-yl)thieno[2,3-d]pyrimidin-4-yl]oxy}-3-{2-[(1-cyclopentyl-1H-pyrazol-5-yl)methoxy]phenyl}propanoic acid] | 3.9e-09 M | 0.023 µM |  |
